In ChEMBL document CHEMBL5608204, “Disulfide bond replacement with non-reducible side chain to tail macrolactamization for the development of potent and selective CXCR4 peptide antagonists endowed with flanking binding sites” (Eur J Med Chem, 2024):
Calls of active or inactive are those of the source. No cut-off for these calls is given here.

How the values were obtained:
[1] = target: T1, C-X-C chemokine receptor type 4 (Homo sapiens, UniProt P61073); assay: Antagonist activity at CXCR4 in human CCRF-CEM cells assessed as inhibition of anti-CXCR4 binding preincubated with compound for 45 mins followed by anti-CXCR4 PE antibody addition and measured after 30 mins by fluorescence based competitive binding assay; type: functional, cell-based
T1 sequence (P61073 whole entry): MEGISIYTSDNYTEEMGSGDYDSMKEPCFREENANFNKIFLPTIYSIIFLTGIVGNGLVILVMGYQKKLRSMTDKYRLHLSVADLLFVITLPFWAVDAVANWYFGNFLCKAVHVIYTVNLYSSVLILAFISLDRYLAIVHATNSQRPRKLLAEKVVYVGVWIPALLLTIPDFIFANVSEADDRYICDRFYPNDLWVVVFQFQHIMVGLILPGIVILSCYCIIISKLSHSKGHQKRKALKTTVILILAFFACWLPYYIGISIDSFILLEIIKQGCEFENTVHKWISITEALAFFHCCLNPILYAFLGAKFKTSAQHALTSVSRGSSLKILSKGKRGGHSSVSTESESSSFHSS

[2] = target: T1, C-X-C chemokine receptor type 4; assay: Displacement of 125I-CXCL12 from CXCR4 in human CCRF-CEM cells measured after 1 hr by competitive binding assay; type: cell-based
[3] = target: T2, Atypical chemokine receptor 3 (Homo sapiens, UniProt P25106); assay: Binding affinity to CXCR7 (unknown origin) overexpressing human MCF7 cells by flow cytometry analysis; type: cell-based
T2 sequence (P25106 whole entry): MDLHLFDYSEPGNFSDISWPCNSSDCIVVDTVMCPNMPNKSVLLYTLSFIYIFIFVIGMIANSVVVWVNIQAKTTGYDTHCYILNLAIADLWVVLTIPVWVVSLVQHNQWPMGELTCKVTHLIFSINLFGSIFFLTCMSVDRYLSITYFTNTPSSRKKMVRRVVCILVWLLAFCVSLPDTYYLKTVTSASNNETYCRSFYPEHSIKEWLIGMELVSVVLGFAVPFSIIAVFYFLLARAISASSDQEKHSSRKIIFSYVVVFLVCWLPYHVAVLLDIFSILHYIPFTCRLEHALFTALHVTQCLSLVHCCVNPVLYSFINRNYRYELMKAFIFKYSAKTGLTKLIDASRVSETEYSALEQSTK

[4] = target: T2, Atypical chemokine receptor 3; assay: Inhibition of CXCR7 (unknown origin) overexpressing human MCF7 cells at upto 10 uM by flow cytometry analysis relative to control; type: cell-based
CCRF-CEM [5] = assay: Inhibition of CXCL12-induced cell migration in human CCRF-CEM cells measured after 6 hrs by DAPI staining based analysis; type: functional; details: dose 0.01-10 µM
[6] = target: T1, C-X-C chemokine receptor type 4; assay: Agonist activity at CXCR4 (unknown origin) transfected with CHO cells cotransfected with CXCR4-GFP assessed as induction of CXCR4 internalization at 0.1 to 1 uM incubated for 45 mins by DAPI staining based microscopy analysis; type: functional, cell-based; details: dose 0.1-1 µM
[7] = target: T1, C-X-C chemokine receptor type 4; assay: Antagonist activity at CXCR4 (unknown origin) transfected with CHO cells cotransfected with CXCR4-GFP assessed as inhibition of CXCL12 induced CXCR4 internalization at upto 1 uM preincubated for 45 mins followed by CXCL12 stimulation and measured after 30 to 90 mins by DAPI staining based microscopy analysis; type: functional, cell-based; details: time 75-135 min
[8] = target: T1, C-X-C chemokine receptor type 4; assay: Agonist activity at CXCR4 in human CEM cells assessed as induction of CXCR4 internalization at 0.1 to 1 uM incubated for 45 mins by flow cytometry analysis; type: functional, cell-based; details: dose 0.1-1 µM
[9] = Stability of the compound assessed as parent compound remaining in PBS buffer at pH 7.4 at 10 uM measured upto 8 hr in presence of glutathione by RP-HPLC analysis; type: physicochemical; details: pH 7.4, 8 h
[10] = target: T2, Atypical chemokine receptor 3; assay: Binding affinity to CXCR7 (unknown origin) overexpressing human MCF7 cells at upto 10 uM by flow cytometry analysis; type: cell-based
CCRF-CEM [11] = assay: Inhibition of CXCL12-induced cell migration in human CCRF-CEM cells at 0.01 to 10 uM measured after 6 hrs by DAPI staining based analysis; type: functional; details: dose 0.01-10 µM
[12] = target: T1, C-X-C chemokine receptor type 4; assay: Antagonist activity at CXCR4 in human CEM cells assessed as inhibition of CXCL12-induced CXCR4 internalization at 0.1 to 1 uM preincubated for 45 mins followed by CXCL12 stimulation and measured after 30 mins by flow cytometry analysis; type: functional, cell-based; details: filed as antagonist, dose 0.1-1 µM, time 75.0 min
[13] = Stability of the compound assessed as parent compound remaining in PBS buffer at pH 7.4 at 10 uM measured after 1 hr in presence of glutathione by RP-HPLC analysis; type: physicochemical; details: PBS buffer with glutathione, read-out: Stability
[14] = Stability of the compound assessed as parent compound remaining in PBS buffer at pH 7.4 at 10 uM measured after 8 hr in presence of glutathione by RP-HPLC analysis; type: physicochemical; details: PBS buffer with glutathione, read-out: Stability

## CC(=O)N[C@@H](CCCNC(=N)N)C(=O)N[C@@H](C)C(=O)N[C@@H]1CNC(=O)[C@H](CCC(C)C)NC(=O)[C@H](Cc2c[nH]cn2)NC(=O)[C@H](Cc2ccc3ccccc3c2)NC(=O)[C@H](CCCNC(=N)N)NC1=O
[1]; ccrf-cem
  IC50: 0.113 µM

## CC(=O)N[C@@H](CCCNC(=N)N)C(=O)N[C@@H](C)C(=O)N[C@H]1CNC(=O)[C@@H](CCC(=O)O)NC(=O)[C@H](Cc2c[nH]cn2)NC(=O)[C@H](Cc2ccc3ccccc3c2)NC(=O)[C@H](CCCNC(=N)N)NC1=O
[1]
  IC50: 0.05 µM
[2]
  IC50: 0.048 µM
[3]
  IC50: > 10 µM
[4]
  inhibition: 37%
CCRF-CEM [5]
  inhibition: Dose-Dependent Effect
[6]
  Activity: inactive
[7]
  Activity: inactive
[8]
  Activity: inactive
[9]
  Stability: Stable

## CC(=O)N[C@@H](CCCNC(=N)N)C(=O)N[C@@H](C)C(=O)N[C@@H]1CCCNC(=O)[C@H](CCC(=O)O)NC(=O)[C@H](Cc2c[nH]cn2)NC(=O)[C@H](Cc2ccc3ccccc3c2)NC(=O)[C@H](CCCNC(=N)N)NC1=O
[1]; ccrf-cem
  IC50: > 10 µM

## CC(=O)N[C@@H](CCCNC(=N)N)C(=O)N[C@@H](C)C(=O)N[C@@H]1CCn2nncc2C[C@@H](C(=O)O)NC(=O)[C@H](Cc2c[nH]cn2)NC(=O)[C@H](Cc2ccc3ccccc3c2)NC(=O)[C@H](CCCNC(=N)N)NC1=O
[2]; ccrf-cem
  IC50: 0.03 µM

## CC(=O)N[C@@H](CCCNC(=N)N)C(=O)N[C@@H](C)C(=O)N[C@@H]1CCCCNC(=O)[C@H](CC(=O)O)NC(=O)[C@H](Cc2c[nH]cn2)NC(=O)[C@H](Cc2ccc3ccccc3c2)NC(=O)[C@H](CCCNC(=N)N)NC1=O
[1]; ccrf-cem
  IC50: 1.71 µM

## CC(=O)N[C@@H](CCCNC(=N)N)C(=O)N[C@@H](C)C(=O)N[C@@H]1CNC(=O)[C@H](CCC(=O)O)NC(=O)[C@H](Cc2c[nH]cn2)NC(=O)[C@H](Cc2ccc3ccccc3c2)NC(=O)[C@H](CCCNC(=N)N)NC1=O
[1]
  IC50: > 10 µM

## CC(=O)N[C@@H](CCCNC(=N)N)C(=O)N[C@@H](C)C(=O)N[C@@H]1CSSC(C)(C)[C@H](C(=O)O)NC(=O)[C@H](Cc2c[nH]cn2)NC(=O)[C@H](Cc2ccc3ccccc3c2)NC(=O)[C@H](CCCNC(=N)N)NC1=O
[10]
  Activity: inactive
CCRF-CEM [11]
  inhibition: Active
[6]
  Activity: inactive
[12]
  Activity: Active
[8]
  Activity: inactive

## CC(=O)N[C@@H](CCCNC(=N)N)C(=O)N[C@@H](C)C(=O)N[C@@H]1CNC(=O)[C@H](Cc2ccccc2)NC(=O)[C@H](Cc2c[nH]cn2)NC(=O)[C@H](Cc2ccc3ccccc3c2)NC(=O)[C@H](CCCNC(=N)N)NC1=O
[1]; ccrf-cem
  IC50: 0.344 µM

## CC(=O)N[C@@H](CCCNC(=N)N)C(=O)N[C@@H](C)C(=O)N[C@@H]1CCNC(=O)[C@H](CCC(=O)O)NC(=O)[C@H](Cc2c[nH]cn2)NC(=O)[C@H](Cc2ccc3ccccc3c2)NC(=O)[C@H](CCCNC(=N)N)NC1=O
[1]; ccrf-cem
  IC50: 0.78 µM

## CC(=O)N[C@@H](CCCNC(=N)N)C(=O)N[C@@H](C)C(=O)N[C@@H]1Cn2cc(nn2)C[C@@H](C(=O)O)NC(=O)[C@H](Cc2c[nH]cn2)NC(=O)[C@H](Cc2ccc3ccccc3c2)NC(=O)[C@H](CCCNC(=N)N)NC1=O
[2]; ccrf-cem
  IC50: 0.036 µM

## CC(=O)N[C@@H](CCCNC(=N)N)C(=O)N[C@@H](C)C(=O)N[C@@H]1CSSC(C)(C)[C@@H](C(=O)O)NC(=O)[C@H](Cc2cnc[nH]2)NC(=O)[C@H](Cc2ccc3ccccc3c2)NC(=O)[C@H](CCCNC(=N)N)NC1=O
[1]
  IC50: 0.001 µM
[2]
  IC50: 0.0047 µM
[13]
  remaining at 1 h, 10 µM: ~88%
[14]
  remaining at 8 h, 10 µM: ~52%

## CC(=O)N[C@@H](CCCNC(=N)N)C(=O)N[C@@H](C)C(=O)N[C@@H]1CCCNC(=O)[C@H](CC(=O)O)NC(=O)[C@H](Cc2c[nH]cn2)NC(=O)[C@H](Cc2ccc3ccccc3c2)NC(=O)[C@H](CCCNC(=N)N)NC1=O
[1]; ccrf-cem
  IC50: 0.96 µM

## CC(=O)N[C@@H](CCCNC(=N)N)C(=O)N[C@@H](C)C(=O)N[C@@H]1CCCCNC(=O)[C@H](CCC(=O)O)NC(=O)[C@H](Cc2c[nH]cn2)NC(=O)[C@H](Cc2ccc3ccccc3c2)NC(=O)[C@H](CCCNC(=N)N)NC1=O
[1]; ccrf-cem
  IC50: > 10 µM

## CC(=O)N[C@@H](CCCNC(=N)N)C(=O)N[C@@H](C)C(=O)N[C@@H]1CNC(=O)[C@@H](CC(=O)O)NC(=O)[C@H](Cc2c[nH]cn2)NC(=O)[C@H](Cc2ccc3ccccc3c2)NC(=O)[C@H](CCCNC(=N)N)NC1=O
[1]
  IC50: 0.1 µM

## CC(=O)N[C@@H](CCCNC(=N)N)C(=O)N[C@@H](C)C(=O)N[C@@H]1CCNC(=O)[C@H](CC(=O)O)NC(=O)[C@H](Cc2c[nH]cn2)NC(=O)[C@H](Cc2ccc3ccccc3c2)NC(=O)[C@H](CCCNC(=N)N)NC1=O
[1]; ccrf-cem
  IC50: 0.2 µM

## CC(=O)N[C@@H](CCCNC(=N)N)C(=O)N[C@@H](C)C(=O)N[C@@H]1CNC(=O)[C@H](CCC(N)=O)NC(=O)[C@H](Cc2c[nH]cn2)NC(=O)[C@H](Cc2ccc3ccccc3c2)NC(=O)[C@H](CCCNC(=N)N)NC1=O
[1]; ccrf-cem
  IC50: 0.243 µM

## CC(=O)N[C@@H](CCCNC(=N)N)C(=O)N[C@@H](C)C(=O)N[C@H]1CNC(=O)[C@@H](CC(=O)O)NC(=O)[C@H](Cc2c[nH]cn2)NC(=O)[C@H](Cc2ccc3ccccc3c2)NC(=O)[C@H](CCCNC(=N)N)NC1=O
[1]
  IC50: 0.187 µM
